Experimental data: ChEMBL document CHEMBL5252613, “Discovery and anti-tumor activity of 4-(benzylamino)-6-(3,5-dimethylisoxazol-4-yl)quinolin-2(1H)-one (CG13250), a potent, selective and orally bioavailable BET bromodomain inhibitor” (Bioorg Med Chem Lett, 2023)

Columns and labels:
[1] = target: T1, Bromodomain-containing protein 4 (Homo sapiens, UniProt O60885); assay: Inhibition of BRD4 bromodomain 1/2 (unknown origin) assessed as dissociation constant by DiscoveRx BROMOscan assay
MV4-11 = assay: Growth inhibition of human MV4-11 cells measured after 72 hrs; format: functional
[2] = target: T1, Bromodomain-containing protein 4; assay: Inhibition of BRD4 bromodomain 1/2 (unknown origin) by Alphascreen assay

For `Cc1noc(C)c1-c1ccc2[nH]c(=O)cc(NCc3ccccc3F)c2c1`, the Kd [1] was 130 nM.
Compound `Cc1noc(C)c1-c1ccc2[nH]c(=O)cc(NCc3ccccc3Br)c2c1` has a GI50 (MV4-11) of 3500 nM and a Kd [1] of 210 nM.
Work on `Cc1noc(C)c1-c1ccc2[nH]c(=O)cc(NCc3cc(Cl)cc(Cl)c3)c2c1` yielded a GI50 (MV4-11) of 1400 nM and a Kd [1] of 170 nM.
Work on `Cc1noc(C)c1-c1ccc2[nH]c(=O)cc(NCC3CCCCC3)c2c1` yielded a GI50 (MV4-11) of 3780 nM and a Kd [1] of 250 nM.
For `Cc1noc(C)c1-c1ccc2[nH]c(=O)cc(O)c2c1`, the GI50 (MV4-11) was > 100000 nM, the IC50 [2] was 16000 nM and the Kd [1] was 3400 nM.
With `Cc1noc(C)c1-c1ccc2c(-c3ccccc3)cc(=O)[nH]c2c1` the GI50 (MV4-11) was 14000 nM, the IC50 [2] was 3100 nM and the Kd [1] was 7400 nM.
Compound `Cc1noc(C)c1-c1ccc2[nH]c(=O)cc(NCc3cccc(Br)c3)c2c1` has a GI50 (MV4-11) of 731 nM and a Kd [1] of 53 nM.
In the case of `Cc1noc(C)c1-c1ccc2[nH]c(=O)cc(N3CCCC3)c2c1`, the GI50 (MV4-11) is reported as 1990 nM and the Kd [1] is reported as 370 nM.
In the case of `Cc1noc(C)c1-c1ccc2[nH]c(=O)cc(NCCc3ccccc3)c2c1`, the GI50 (MV4-11) is reported as 5720 nM and the Kd [1] is reported as 490 nM.
Work on `Cc1noc(C)c1-c1ccc2[nH]c(=O)cc(N3CCOCC3)c2c1` yielded a Kd [1] of 570 nM.
